Test results taken from patent US20130303482A1, “Cylodextrin Complexation Methods for Formulating Peptide Proteasome Inhibitors” (ONYX THERAPEUTICS, INC., priority 2012, published 2013).
Converted amounts (≈) assume the structure as drawn.

Columns and labels:
[1] = Slurry complexation / solubilization of CFZ-API in SBECD with citric acid (Example 1); assay type: physicochemical
Procedure: In a 525 L stainless steel jacketed cooled tank controlled to 2° C.-8° C., a suspension of 2.0 kg carfilzomib-API (CFZ-API), 246 kg water for injection (WFI), and 100 kg sulfobutylether beta-cyclodextrin (SBECD) was prepared. Specifically, in the 525 L stainless steel jacketed cooled tank controlled to 2° C.-8° C., 100 kg SBECD was dissolved in 246 kg WFI. The Carfilzomib suspension was then prepared using 2.0 kg of CFZ-API. Mixing was performed using an impeller mixer to maintain suspension of the CFZ-API solids and dissolve the SBECD. In the same vessel, a probe style rotor-stator high shear mixer (homogenizer) was used as well as the low shear impeller. The high shear mixer was operated for approximately 1 hour yielding an even suspension and reduction of particle size for any larger primary particles or agglomerated API. After a suspension was achieved, 1.96 kg of citric acid was added as a 16% aqueous solution. The pH of the solution was then lowered inducing partial solubilization of the CFZ-API followed by and complexation due to the presence of SBECD. Mixing was continued for a further 24 hours with both the impeller and the high shear mixer and a dissolved concentration of CFZ-API of greater than 5.1 mg/mL was achieved. The suspension containing greater than 5.1 mg/mL of dissolved complexed CFZ-API was filtered with a 0.45 micrometer clarifying filter, then accurately diluted to a dissolved concentration of 5.0 mg/mL and pH adjusted with 1 N sodium hydroxide solution to achieve pH 3.5. The solution was sterile filtered, with two sequential 0.22 micrometer sterilizing filters, then filled into vials 12.36 mL each, containing 61.8 mg per vial of CFZ-API. The vials were partially stoppered and loaded into a lyophilizer and freeze dried over 103 hours using a freezing temperature of −45° C., primary drying temperature of −15° C., and secondary drying of +30° C. The lyophilized vials were fully stoppered, and capped, then stored at the product stability temperature of 2° C.-8° C. for up to two years before use. […]

[2] = physchem
[3] = CDP (chlorohydrin degradation product) formation in lyophilized complexed carfilzomib vs pH, water and sodium chloride content, HPLC (Example 2); assay type: physicochemical
Procedure: A multivariate statistical design of experiments was conducted to assess factors controlling the level of chlorohydrin degradation product as a function of processing parameters and storage time over six months. The complexation was performed in the proportion and parameters given in Example 1, with the following modifications: (i) the complexation process was performed at 2 L batch size; (ii) the final pH of solution before vial filling was varied for purposes of the experiment from 3.0, to 4.0; (iii) sodium chloride was spiked into SBECD in some experiments to create a high sodium chloride condition; (iv) water content of the lyophilized final product in stoppered vials was produced at high and low sodium chloride conditions via early termination and stoppering of vials to create a higher residual water content condition.
The solution of complexed carfilzomib for injection bulk solution pre-lyophilization included aqueous 5 mg/mL carfilzomib, 250 mg/mL Captisol® (SBECD) and 4.86 mg/mL citric acid, pH adjusted with aqueous sodium hydroxide. Compounding of the bulk solutions for lyophilization followed the procedure detailed in Example 1 with the following manipulations to create solutions with different specific attributes: • 1. pH was adjusted to 3.0 and 4.0 • 2. Sodium chloride was spiked into the Captisol® to create a “High Chloride” condition Captisol® manufactured by Cydex, a subsidiary of Ligand, has a standard product analysis range for sodium chloride from 0.05% to 0.2% (w/v). […] 400 g of this Captisol® was required per batch for the process to be performed at 2 L scale batches of complexation processing (in same proportions and general parameters per Example 1). To create the “high chloride” condition, 0.6 g of NaCl was added to 399.4 g of Captisol® which thus mimicked what a batch containing 0.2% chloride Captisol® would be comprised of.
In order to generate two (2) moisture content conditions in the final lyophilized vials, two (2) sets of 61.8 mg/vial (of CFZ-API) samples were lyophilized. The first cycle generated the “dry” sample set of vials containing approximately 0.6% residual water per Example 1 lyophilization parameters. For the second sample set, lyophilization was terminated and vials stoppered earlier in the secondary drying phase to generate the “wet” condition vials, with residual moisture approximately 2.4% water per vial initially.
The bulk solution of complexed carfilzomib was analyzed during manufacture by High Performance Liquid Chromatography (HPLC) to accurately quantify the concentration of dissolved and complexed carfilzomib drug substance. Subsequently, additional water was added to accurately dilute the bulk complexed solution. After this dilution step, HPLC was used again to ensure a target concentration of 5.0 mg/mL was achieved. Samples of the three (3) final bulk solutions were analyzed for potency and purity confirmation testing by HPLC. […] Karl Fischer Coulometry method was used for the water content determination in the lyophilized drug product.

[4] = Solubility of carfilzomib as a function of SBECD concentration, pH 1.5 and 3.5, 5° C. and 25° C. (Example 4); assay type: physicochemical; settings: SBECD solutions, citric acid 30 mM, pH 1.5 and 3.5, 5° C. vs 25° C., 24 hours
Procedure: The experiments at acidic conditions below the target pH values and titrated to pH 1.5 or 3.5 using aqueous sodium hydroside solution. Measurements of solubilized concentration were those from samples analyzed after 24 hours of time to equilibrate.

extent of solubilization vs API particle size (FIG. 2) ([1]; 24 hour complexation, mean API particle size 21.1 vs 7.5 micrometers): equivalent extent of solubilization
dissolved concentration of CFZ-API ([1]; SBECD/WFI/citric acid slurry, 2° C.-8° C., 24 hours mixing): greater than 5.1 mg/mL
effect of higher SBECD concentration on solubility (FIG. 3) ([1]; process of Example 1): increased the solubility
solubility ([2]; pH 1, simulated gastric fluid): 1800 µg/mL (≈ 2500 µM)
solubility ([2]; pH 3, aqueous buffer): 20 µg/mL (≈ 27.8 µM)
solubility ([2]; pH 5, aqueous buffer): 2 µg/mL (≈ 2.78 µM)
solubility ([2]; water): 2 µg/mL (≈ 2.78 µM)
% Area of CDP after 6 months (HPLC data) ([3]; pH 3.00, water 0.7%, sodium chloride 0.05%, 5° C.): 0.00 % Area
% Area of CDP after 6 months (HPLC data) ([3]; pH 3.00, water 0.7%, sodium chloride 0.05%, 25° C.): 0.14 % Area
% Area of CDP after 6 months (HPLC data) ([3]; pH 3.00, water 0.7%, sodium chloride 0.2%, 5° C.): 0.13 % Area
% Area of CDP after 6 months (HPLC data) ([3]; pH 3.00, water 0.7%, sodium chloride 0.2%, 25° C.): 0.70 % Area
% Area of CDP after 6 months (HPLC data) ([3]; pH 3.00, water 2%, sodium chloride 0.05%, 5° C.): 0.02 % Area
% Area of CDP after 6 months (HPLC data) ([3]; pH 3.00, water 2%, sodium chloride 0.05%, 25° C.): 0.55 % Area
% Area of CDP after 6 months (HPLC data) ([3]; pH 3.00, water 2%, sodium chloride 0.2%, 5° C.): 0.28 % Area
% Area of CDP after 6 months (HPLC data) ([3]; pH 3.00, water 2%, sodium chloride 0.2%, 25° C.): 2.57 % Area
% Area of CDP after 6 months (HPLC data) ([3]; pH 4.00, water 0.7%, sodium chloride 0.05%, 5° C.): 0.00 % Area
% Area of CDP after 6 months (HPLC data) ([3]; pH 4.00, water 0.7%, sodium chloride 0.05%, 25° C.): 0.09 % Area
% Area of CDP after 6 months (HPLC data) ([3]; pH 4.00, water 0.7%, sodium chloride 0.2%, 5° C.): 0.08 % Area
% Area of CDP after 6 months (HPLC data) ([3]; pH 4.00, water 0.7%, sodium chloride 0.2%, 25° C.): 0.36 % Area
% Area of CDP after 6 months (HPLC data) ([3]; pH 4.00, water 2%, sodium chloride 0.05%, 5° C.): 0.02 % Area
% Area of CDP after 6 months (HPLC data) ([3]; pH 4.00, water 2%, sodium chloride 0.05%, 25° C.): 0.35 % Area
% Area of CDP after 6 months (HPLC data) ([3]; pH 4.00, water 2%, sodium chloride 0.2%, 5° C.): 0.18 % Area
% Area of CDP after 6 months (HPLC data) ([3]; pH 4.00, water 2%, sodium chloride 0.2%, 25° C.): 1.71 % Area
difference in solubility between low and high temperature (FIG. 6) [4]: No significant differences in solubility
SMILES: CC(C)C[C@H](NC(=O)[C@H](CCc1ccccc1)NC(=O)CN1CCOCC1)C(=O)N[C@@H](Cc1ccccc1)C(=O)N[C@@H](CC(C)C)C(=O)[C@@]1(C)CO1 [carfilzomib]
